This series is described as follows: gradient 5% acetonitrile 3 min, to 50% in 2 min, to 85% in 15 min, held 3 min, 100 µL/min. The note with it: column: Zorbax Extend-C18 2.1 x 50 mm; eluents: water / acetonitrile, 0.1% formic acid. The gist of the method: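 Retention times come from adduct peaks that were picked computationally and then checked by hand. The standards, pure and pooled in mixtures of ~100 molecules, were run on a Zorbax Extend-C18 column (2.1 × 50 mm, 1.8 μm) at 100 μL/min with water and acetonitrile, each with 0.1% formic acid. Detection was by quadrupole time-of-flight mass spectrometry in positive and negative ionization mode, with a dead volume of 40 μL and a dwell volume of 900 μL.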
The compound `COC(=O)Nc1nc(CC(=O)NCc2ccco2)cs1` yielded an RP-LC retention time of 606 s.
The result for `COC(=O)c1ccc2c(=O)n(-c3ccc(C)c(F)c3)c(N3CCN(c4ccccn4)CC3)nc2c1` reads 714 s.
As to `Cc1ccc(N2C(=O)C3N=NN(Cc4nc(-c5ccc6c(c5)OCO6)no4)C3C2=O)cc1Cl` (stereo not drawn), the RP-LC retention time is 1010 s.
The same measure for `COc1ccc(OC)c(NC(=O)C2c3ccccc3C(=O)N3CCc4cc(OC)c(OC)cc4C23)c1` (stereo not drawn): 829 s.
With `Cc1ccc(NC(=O)N2CCCC2C(=O)NC2CC2)cc1` (stereo not drawn), the RP-LC retention time was 668 s.
Take `Cc1ccc(NC(=O)N2CC(c3nc(C)no3)C3(CCOCC3)C2)c(Cl)c1` (stereo not drawn): the RP-LC retention time came out at 796 s.
`O=C(NCCc1ccccc1)NC(c1ccccc1)c1nnc(-c2ccccc2)o1` (stereo not drawn) registered an RP-LC retention time of 876 s.
The result for `O=C(CCS(=O)(=O)c1ccccc1)N1CC(c2nc(-c3cnccn3)no2)C1` reads 606 s; that for `CC1=C(c2ccccc2)S(=O)(=O)N=C1N1CCC(NC(=O)CCC(C)C)CC1`, 857 s; that for `CCN1CCCn2nc(C3CCN(C(=O)COc4ccccc4)CC3)cc2C1=O`, 678 s.
The result for `Cc1nnc(N2CCC(C(=O)N3CCC(C(N)=O)CC3)CC2)c2nn(-c3ccccc3)c(C)c12` reads 599 s.
On to `NC(=O)C1CCN(C(=O)c2ccc(F)cc2)CC1`, for which the RP-LC retention time was found to be 589 s.
On to `COc1cccc(-n2c(=O)c3sccc3n(Cc3nc(-c4ccc(C)c(C)c4)no3)c2=O)c1`, for which the RP-LC retention time amounted to 1160 s.
The result for `COc1ccc(NC(=O)C2CCN(S(=O)(=O)c3ccc4c(c3)CCCC(=O)N4)CC2)cc1Cl` reads 782 s; that for `CCn1nccc1C(=O)NCCn1c(C)cnc1C1CCC1`, 574 s; that for `COCCC(=O)N1CCC2(CCC2NC(=O)COC)CC1` (stereo not drawn), 594 s.
The same measure for `COc1ccc(-c2cccc(NC(C)=O)c2)nn1`: 645 s; for `CCOC(=O)C1C(=O)NC(N2CCN(Cc3ccccc3)CC2)=NC1c1ccco1` (stereo not drawn): 578 s; for `O=C(C1CCC1)N1CCC2(CC1)NCCc1c2[nH]c2ccccc12`: 628 s.
The same measure for `CCN1c2cc(C(=O)NCc3cccs3)ccc2C(=O)N2CCCCC21` (stereo not drawn): 822 s.
With `CCOc1ccc(S(=O)(=O)N2CCC(C(=O)N3CCN(C)CC3)CC2)cc1`, the RP-LC retention time amounted to 569 s.
The result for `CC(C)CNC(=O)N1C[C@@H]2CCCN3CCC[C@@H]([C@H]23)[C@H]1CCCC(=O)NCC1CC1` reads 603 s.
The result for `CCCn1nc(CNC(=O)c2ccsc2)c2ccccc21` reads 825 s; that for `CCCN1C(=O)COc2ccc(-c3noc(C4CC(=O)N(c5ccc(C)c(C)c5)C4)n3)cc21` (stereo not drawn), 1060 s; that for `CC(C(=O)NCCCN1CCCCCC1)n1ccc2cc(S(=O)(=O)N3CCCCCC3)ccc21` (stereo not drawn), 604 s.
The same measure for `COc1ccc(OC)c(NC(=O)C2CCCN2S(=O)(=O)c2cc3c(cc2C)NC(=O)CO3)c1` (stereo not drawn): 772 s; for `Clc1ccccc1-c1noc(-c2nc(-c3ccncc3)no2)n1`: 1130 s.
On to `CCOc1ccc2nc(N3CCCC(C(=O)NCCc4ccc(S(N)(=O)=O)cc4)C3)sc2c1` (stereo not drawn), for which the RP-LC retention time is 730 s.
The compound `Cc1ccc(NC(=O)Cc2c(C)nn(-c3nc(-c4ccc(Cl)cc4)cs3)c2C)cc1C` returned an RP-LC retention time of 852 s.
The result for `O=C(NCCc1ccc(Cl)cc1)C1CCCN(c2ncnc3c2nc2n3CCCCC2)C1` (stereo not drawn) reads 838 s; that for `Cc1nn(-c2ccccc2)c(C)c1N1CCN(S(=O)(=O)c2c(C)noc2C)CC1`, 952 s; that for `CCCN1C(=O)COc2ccc(-c3noc(-c4n[nH]c5c4CCCC5)n3)cc21`, 1000 s.
For `CCc1cccc(NC(=O)c2cc3n(n2)CC(C)(C(=O)NC2CCCC2)N(CC)C3=O)c1` (stereo not drawn), the RP-LC retention time was found to be 605 s.
The same measure for `O=C(CN1CCCCC1c1nc(-c2cccs2)no1)NCc1ccc(Cl)cc1` (stereo not drawn): 1060 s; for `CCn1c(C(=O)NCCCOC(C)C)cc2c(-c3cccs3)nn(-c3ccccc3)c21`: 1150 s; for `CC(=O)Nc1ccc(NC(=O)C2CCCN(S(=O)(=O)c3cc(-c4noc(C)n4)cs3)C2)cc1` (stereo not drawn): 744 s.
Compound `CC(Cc1ccco1)NC(=O)C1CCN(S(=O)(=O)c2ccc3c(c2)sc(=O)n3C(C)C)CC1` (stereo not drawn) came in with an RP-LC retention time of 920 s.
The same measure for `CCOC(=O)c1c(S(=O)(=O)N2CCC(C(=O)Nc3ccc(F)cc3C)CC2)c(C)n(C)c1C`: 897 s; for `CN1CCCCCC(O)c2cc(C(=O)NC3CCCCC3)ccc21` (stereo not drawn): 654 s.
The same measure for `COc1ncc(C(=O)Nc2ccc(F)c(Cl)c2)c(C)n1`: 825 s; for `COCCCNC(=O)Cn1ncc2c(C)n(Cc3ccc(Cl)cc3)c(C)c2c1=O`: 775 s; for `O=C(C1CCCN1)N1CCC(OCc2nc(-c3cccnc3)no2)CC1` (stereo not drawn): 572 s.
With `COc1cccc(CNC(=O)C2CCN(C(=O)c3cc4oc5ccccc5c4n3C)CC2)c1OC`, the RP-LC retention time stood at 891 s.
Regarding `CCOc1ccc(NC(=O)Cn2nc3n(c2=O)CCCCC3)cc1`, the RP-LC retention time was found to be 690 s.
Compound `CCC(=O)Nc1ccc(CCc2nc3ccc(C(=O)NCc4ccc(SC)cc4)cc3[nH]2)cc1` returned an RP-LC retention time of 683 s.
The same measure for `FC(F)(F)c1cccc(Nc2c(-c3ccc(Cl)cc3)nc3cnccn23)c1`: 1090 s; for `CC(=O)N1C[C@@H]2CCCN3CCC[C@@H]([C@H]23)[C@H]1CCCC(=O)NCCN(C)C1CCCCC1`: 538 s.
`CCN1C(=O)c2cc(S(=O)(=O)NCc3ccc(F)cc3)ccc2Oc2cccnc21`: the RP-LC retention time turned out to be 1060 s.
The result for `Cc1c(C2CCN(C(=O)c3ccco3)CC2)noc1N` reads 620 s; that for `O=C(NC1CCCCC1)C1CCCN(S(=O)(=O)c2c[nH]c(C(=O)N3CCCCCC3)c2)C1` (stereo not drawn), 866 s; that for `CS(=O)(=O)N1CCCN(C(=O)c2ccccc2F)CC1`, 651 s.
Turning to `COc1ccc2nc3oc(C(=O)NCCc4ccsc4)cc3cc2c1`, the RP-LC retention time turned out to be 901 s.
The result for `Cn1c(=O)n(C)c2cc(NS(=O)(=O)c3ccc(F)cc3)c(Cl)cc21` reads 726 s; that for `Cc1cccc(-c2noc(CN3N=NC4C(=O)N(c5ccccc5)C(=O)C43)n2)c1` (stereo not drawn), 989 s; that for `CCOc1ccc(Cc2nnc(SCC(=O)c3ccc(OC)cc3)o2)cc1`, 938 s.
The result for `Cc1cccc(C#Cc2ccccc2)n1` reads 833 s; that for `Cc1nc(-c2ccc3c(c2)CCN3C(=O)c2cccc(C#N)c2)cs1`, 906 s.
Regarding `COc1ccc(NC(=O)CN2C(=O)C(C)(C)c3ccccc32)cc1OC`, the RP-LC retention time worked out at 778 s.
The same measure for `CC(C)(C)C(=O)Nc1ccc2nc(N3CCN(CC(=O)N4CCCCCC4)CC3)cc(C(=O)O)c2c1`: 603 s.
With `COc1ccccc1N1CCN(c2cc(SCC(=O)Nc3cc(F)ccc3Cl)ncn2)CC1`, the RP-LC retention time stood at 1190 s.
In turn, `CCc1ccc(C(=O)c2cnc3cc4c(cc3c2N2CCN(CC)CC2)OCO4)cc1` yielded an RP-LC retention time of 608 s.
The result for `Cc1cccc(CNC(=O)CCC2CCN(c3cc(NC4CC4)ncn3)CC2)c1` reads 672 s; that for `CCc1cccc(NC(=O)Nc2ccc3nncn3c2)c1`, 747 s.
For `C=CCn1c(=O)c2ccccc2n(Cc2nc(-c3ccc(SC)cc3)no2)c1=O`, the RP-LC retention time is 1100 s.
The compound `CCS(=O)(=O)c1nc2ccc(NS(C)(=O)=O)cc2s1` displayed an RP-LC retention time of 699 s.
The result for `Cn1c(N2CCC(C(=O)N3CCN(c4ccccc4F)CC3)CC2)cc(=O)n(C)c1=O` reads 716 s.
The result for `O=C1c2ccccc2C(=O)N1c1ncn[nH]1` reads 667 s.
For `COC(=O)C(NC(=O)N1CCCn2nc(-c3cccnc3)cc2C1)c1ccccc1` (stereo not drawn), the RP-LC retention time was found to be 616 s.
For the compound `O=C([C@@H]1C[C@H](F)CN1C(=O)Nc1cc(F)cc(F)c1)N1CCCCC1`, the RP-LC retention time was found to be 766 s.
The same measure for `CC(C)n1cnc(S(=O)(=O)N2CCC(C(=O)Nc3ccc(Br)cc3F)CC2)c1`: 834 s; for `COCCNC(=O)c1nnn(-c2ccc(F)cc2)c1-c1ccncc1`: 663 s.
For `O=c1n(Cc2cccc(Br)c2)nc2c(S(=O)(=O)N3CCOCC3)cccn12`, the RP-LC retention time came out at 811 s.
The result for `COc1ccc(Cl)cc1NC(=O)c1c(O)c2cccnc2n(-c2cccc(F)c2)c1=O` reads 1330 s.
The result for `O=S(=O)(NCc1cccs1)c1ccc(Cl)c(-c2nnc(-c3ccccc3)o2)c1` reads 1020 s; that for `Cc1cc(C)cc(NC(=O)Cn2nc(N3CCSCC3)c3ccccc3c2=O)c1`, 1020 s; that for `COc1ccc(NS(=O)(=O)c2ccc(-c3nnc(C4CCC4)o3)o2)cc1F`, 868 s.
The same measure for `CCOc1ccc(-n2ccnc(NC(=O)Nc3ccc(F)cc3)c2=O)cc1`: 985 s.
For the compound `CCCn1cc(C2=CCN(S(=O)(=O)c3cccc(Cl)c3)CC2)c2cccnc21`, the RP-LC retention time came out at 1110 s.
